Measurements reported in patent US20230024302A1, “2,3,5-TRISUBSTITUTED PYRAZOLO[1,5-A]PYRIMIDINE COMPOUNDS” (Arcus Biosciences, Inc., priority 2019, published 2023).

Key:
[1] = target: T1, PI3Kγ (Homo sapiens, UniProt P48736); experiment: PI3Kγ cellular assay in THP-1 cells (AKT pS473 AlphaLISA); format: cell-based; conditions: Table 2, rhMCP-1 stimulated AKT pS473, read-out: cellular potency (PI3Kγ IC50)
T1 construct: host or cells: THP-1
How it was run: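 Serum-starved THP-1 cells (1.8×10^5/well, serum-free DMEM) treated with compounds from 4 nM to 30 μM in 2% DMSO, then stimulated and lysed.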

[2] = target: T2, PI3Kγ (p120γ) (Homo sapiens, UniProt P48736); experiment: Inhibition of PI3K kinase activity (ADP Glo), PI3Kγ; conditions: Table 2, p120γ, read-out: biochemical potency (PI3Kγ IC50)
T2 construct: purchased Promega V1761
T2 sequence (P48736 whole entry): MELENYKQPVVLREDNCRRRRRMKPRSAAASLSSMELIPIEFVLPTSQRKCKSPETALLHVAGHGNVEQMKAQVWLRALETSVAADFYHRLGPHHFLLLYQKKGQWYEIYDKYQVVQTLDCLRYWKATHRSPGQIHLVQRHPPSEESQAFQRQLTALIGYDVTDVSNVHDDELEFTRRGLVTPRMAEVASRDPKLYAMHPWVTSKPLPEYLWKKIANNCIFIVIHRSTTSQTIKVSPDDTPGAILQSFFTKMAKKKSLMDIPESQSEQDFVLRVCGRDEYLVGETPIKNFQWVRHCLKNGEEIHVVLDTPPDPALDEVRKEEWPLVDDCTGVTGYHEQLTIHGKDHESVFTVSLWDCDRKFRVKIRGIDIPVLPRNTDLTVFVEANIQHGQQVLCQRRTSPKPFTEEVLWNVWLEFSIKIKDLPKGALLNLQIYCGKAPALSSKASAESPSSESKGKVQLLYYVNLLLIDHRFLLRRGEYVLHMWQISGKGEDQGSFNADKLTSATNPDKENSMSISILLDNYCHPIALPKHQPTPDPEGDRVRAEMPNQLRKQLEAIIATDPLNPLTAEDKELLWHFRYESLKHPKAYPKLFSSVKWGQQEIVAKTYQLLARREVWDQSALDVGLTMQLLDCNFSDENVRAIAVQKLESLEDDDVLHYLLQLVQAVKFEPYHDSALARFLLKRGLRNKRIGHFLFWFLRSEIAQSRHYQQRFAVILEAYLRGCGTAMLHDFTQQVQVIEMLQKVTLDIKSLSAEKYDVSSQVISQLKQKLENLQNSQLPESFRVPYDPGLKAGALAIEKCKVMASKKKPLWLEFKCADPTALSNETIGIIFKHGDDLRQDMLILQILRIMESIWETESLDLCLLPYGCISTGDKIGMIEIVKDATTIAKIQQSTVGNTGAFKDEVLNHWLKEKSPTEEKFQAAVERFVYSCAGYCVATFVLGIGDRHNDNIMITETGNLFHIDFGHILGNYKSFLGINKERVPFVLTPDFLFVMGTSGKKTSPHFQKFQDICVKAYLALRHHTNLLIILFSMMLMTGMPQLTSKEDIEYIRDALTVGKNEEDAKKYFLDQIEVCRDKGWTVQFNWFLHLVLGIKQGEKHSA
How it was run: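 Recombinant p120γ (8 nM, 2× stock) was preincubated with compound for 1 h at rt in HEPES pH 7.4, NaCl, MgCl2 and 0.05% BSA. Reaction was started with PIP2 (0.1 mg/ml, 2×) and ATP (50 μM, 2×) and ran 60 min at rt. ADP formed was read by ADP-Glo luminescence, and IC50 came from a 4-parameter fit.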

T1 sequence (P48736 whole entry): as above

Row | Structure (SMILES) | IC50 [1] [nM] | IC50 [2] [nM]
1 | Cc1cc(-c2ccn3nc(N)c(C(=O)NC4CC4)c3n2)cc2c1C(=O)N([C@@H](C)C1CC1)C2 [Example 208] | 100 to 1000 | < 100
2 | Cc1cc(-c2ccn3nc(N)c(C(=O)NC4CCN(C)CC4)c3n2)cc2c1C(=O)N([C@@H](C)C1CC1)C2 [Example 209] | 100 to 1000 | < 100
3 | Cc1cc(-c2ccn3nc(N)c(C(=O)N[C@H]4CCC[C@@H]4O)c3n2)cc2c1C(=O)N([C@@H](C)C1CC1)C2 [Example 210] | 100 to 1000 | < 100
4 | Cc1cc(-c2ccn3nc(N)c(C(=O)N[C@H]4CC[C@@H]4O)c3n2)cc2c1C(=O)N([C@@H](C)C1CC1)C2 [Example 211] | 100 to 1000 | < 100
5 | Cc1cc(-c2ccn3nc(N)c(C(=O)NCC4CC4)c3n2)cc2c1C(=O)N([C@@H](C)C1CC1)C2 [Example 213] | 100 to 1000 | < 100
6 | Cc1cc(-c2ccn3nc(N)c(C(=O)NC[C@H]4C[C@@H](O)C4)c3n2)cc2c1C(=O)N([C@@H](C)C1CC1)C2 [Example 215] | 100 to 1000 | < 100
7 | Cc1cc(-c2ccn3nc(N)c(C(=O)N[C@@H]4CCNC4)c3n2)cc2c1C(=O)N([C@@H](C)C1CC1)C2 [Example 218] | 100 to 1000 | < 100
8 | Cc1cc(-c2ccn3nc(N)c(C(=O)NCC(F)(F)F)c3n2)cc2c1C(=O)N([C@@H](C)C1CC1)C2 [Example 222] | 100 to 1000 | < 100
9 | Cc1cc(-c2ccn3nc(N)c(C(=O)NC(C)(C)CO)c3n2)cc2c1C(=O)N([C@@H](C)C1CC1)C2 [Example 223] | 100 to 1000 | < 100
10 | Cc1cc(-c2ccn3nc(N)c(C(=O)N[C@H]4CCNC4=O)c3n2)cc2c1C(=O)N([C@@H](C)C1CC1)C2 [Example 225] | 100 to 1000 | < 100
11 | Cc1cc(-c2ccn3nc(N)c(C(=O)NCC4COC4)c3n2)cc2c1C(=O)N([C@@H](C)C1CC1)C2 [Example 226] | 100 to 1000 | < 100
12 | Cc1cc(-c2ccn3nc(N)c(C(=O)NC4(CCO)CC4)c3n2)cc2c1C(=O)N([C@@H](C)C1CC1)C2 [Example 228] | 100 to 1000 | < 100
13 | Cc1cc(-c2ccn3nc(N)c(C(=O)N[C@@H]4CCCC[C@H]4O)c3n2)cc2c1C(=O)N([C@@H](C)C1CC1)C2 [Example 229] | 100 to 1000 | < 100

The next lines start with the values.

Row | IC50 [1] [nM] | IC50 [2] [nM] | Structure (SMILES)
14 | 100 to 1000 | < 100 | Cc1cc(-c2ccn3nc(N)c(C(=O)N[C@@H](C)c4cccnc4)c3n2)cc2c1C(=O)N([C@@H](C)C1CC1)C2 [Example 212]
15 | 100 to 1000 | < 100 | Cc1cc(-c2ccn3nc(N)c(C(=O)NCc4cnn(C)c4)c3n2)cc2c1C(=O)N([C@@H](C)C1CC1)C2 [Example 214]
16 | 100 to 1000 | < 100 | CNC(=O)c1c(N)nn2ccc(-c3cc(C)c4c(c3)CN([C@@H](C)C3CC3)C4=O)nc12 [Example 216]
17 | 100 to 1000 | < 100 | Cc1cc(-c2ccn3nc(N)c(C(=O)N[C@@H](C)c4ccccn4)c3n2)cc2c1C(=O)N([C@@H](C)C1CC1)C2 [Example 217]
18 | 100 to 1000 | < 100 | Cc1cc(-c2ccn3nc(N)c(C(=O)N[C@H](C)c4ccncc4)c3n2)cc2c1C(=O)N([C@@H](C)C1CC1)C2 [Example 219]
19 | 100 to 1000 | < 100 | Cc1cc(-c2ccn3nc(N)c(C(=O)N[C@@H](C)C4CC4)c3n2)cc2c1C(=O)N([C@@H](C)C1CC1)C2 [Example 220]
20 | 100 to 1000 | < 100 | Cc1cc(-c2ccn3nc(N)c(C(=O)N[C@@H](C)CO)c3n2)cc2c1C(=O)N([C@@H](C)C1CC1)C2 [Example 221]
21 | 100 to 1000 | < 100 | Cc1cc(-c2ccn3nc(N)c(C(=O)NC(C)C(N)=O)c3n2)cc2c1C(=O)N([C@@H](C)C1CC1)C2 (some centres unmarked) [Example 224]
22 | 100 to 1000 | < 100 | Cc1cc(-c2ccn3nc(N)c(C(=O)NC[C@@H](C)O)c3n2)cc2c1C(=O)N([C@@H](C)C1CC1)C2 [Example 227]
